Results as given in patent US20250034116A1, “1,4-DIHETEROCYCLIC SUBSTITUTED AROMATIC RING OR AROMATIC HETEROCYCLIC COMPOUND AND USE THEREOF” (BeBetter Med Inc., priority 2022, published 2025).

What was measured:
[1] = test system: diet-induced obesity (DIO) mouse model; assay: Experiment 2: compound 2 and 4, weight loss and blood glucose lowering in DIO mouse model; assay type: in vivo, Male C57BL/6J mice
Text: Experiment 2 was to study the effects of compound 2 and 4 on weight loss and blood glucose lowering in a diet-induced obesity (DIO) mouse model. Male C57BL/6J mice were purchased from Zhuhai BST Biotechnology Co., Ltd. and housed in a barrier system animal facility. Animals were randomly divided into 4 groups: normal control group, DIO model control group, DIO model compound 2 treatment group, and DIO model compound 4 treatment group, with 4-5 animals per group. The model control group and treatment groups were first fed with high-fat diet (HFD) for 9 weeks (day 63), and then the treatment groups were orally administered with compound 2 or compound 4 at a dose of 50 mg/kg once daily for 4 consecutive weeks, while continuing to receive HFD. Animal weights were measured weekly, and on the last day of treatment, they were fasted overnight but allowed access to water before an oral glucose tolerance test (OGTT).

[2] = Pharmacokinetic (PK) experiment, oral administration in rats; assay type: in vivo, Male SD rats; conditions: 20 mg/kg; for AUC(0-inf) / Cmax / Tmax / half-life / AUC(0-t): male, SD, rat, plasma; for AUC(0-t): read-out: AUC0-24
Method: Male SD rats, weighing 180-250 grams, were fasted overnight before testing. The test compound was dissolved in 30% sulfobutylether-β-cyclodextrin and administered orally at a dose of 20 mg/kg. Blood was collected from the tail vein at 15 minutes, 30 minutes, and 1, 2, 4, 6, 8, and 24 hours after administration. Approximately 0.3 ml of blood was collected at each time point, placed in a centrifuge tube containing K2-EDTA, and centrifuged (2000 g for 10 minutes at 4° C.) to take the plasma, which was then stored in an ultra-low temperature freezer at −70° C. or below. A 50 μL plasma sample was mixed with 135 μL of acetonitrile (containing 0.5 μg/mL internal standard) and vortexed for protein precipitation. After centrifugation, the supernatant was taken for LC-MS/MS analysis.

[3] = test system: CYP enzymes in rat liver microsomes (RLM); assay: Inhibition of 20-HETE production in rat liver microsomes (RLM); assay type: biochemical
Outline: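 Test compounds were dissolved in DMSO, diluted in acetonitrile/DMSO (3:1), and 2 μl was mixed with 100 μl potassium phosphate buffer containing rat liver microsomes in a 96-well plate. Duplicate 30 μl aliquots received 15 μl of 400 μM substrate, were preheated at 37° C. for 10 minutes, then started with 15 μl of 6 mM NADPH for 25 minutes. LC-MS/MS measured 20-HETE formation.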

[4] = biological target: recombinant CYP4F2 (rCYP4F2) (Homo sapiens (Human), UniProt P78329); assay: Inhibition of 20-HETE production by recombinant CYP4F2; assay type: biochemical; conditions: for inhibition at 0.1 µM: read-out: rCYP4F2 (% inh @ 100 nM)
Method: (§1) Experimental principle: The inhibitory activity of 20-HETE production is evaluated by testing the inhibitory effects of the compound on human liver microsomes (HLM), rat liver microsomes (RLM), mouse liver microsomes (MLM), or […] CYP4 subtype enzymes (CYP4F2). This assay employs HLM, RLM, or MLM along with recombinant CYP4F2 (rCYP4F2) and recombinant CYP4A11 (rCYP4A11), which are […] CYP4 subtype enzymes, to detect the effects of the test compound at different concentrations on the metabolic rate of enzyme-specific substrates, to determine the inhibitory effects of the test compound on CYP enzymes in HLM, RLM, or MLM.
(§2) Experimental methods: Dissolve the test compound in DMSO, and subsequently dilute it with an acetonitrile and DMSO mixture (3:1). Add 2 μl of varying concentrations of the test compound and 100 μl of potassium phosphate buffer containing either liver microsomes or recombinant enzymes to a 96-well plate. After mixing well, transfer 30 μl to another well (in duplicate), add 15 μl of 400 μM substrate solution, and mix well again. Preheat at 37° C. for 10 minutes, and then add 15 μl of 6 mM NADPH and incubate at 37° C. for 25 minutes. After 25 minutes, add 160 μl of acetonitrile solution (containing 0.1 μg/ml internal standard) to stop the reaction. Mix well, centrifuge at 3500 g for 15 minutes, and then analyze the supernatant using LC-MS/MS.
(§3) Plot the compound concentration on the x-axis and the inhibition rate on the y-axis to draw the curve. Use GraphPad Prism 5 software to fit the curve and calculate the IC50. The formula is Y=Bottom+(Top−Bottom)/(1+10^((Log IC50−X)×HillSlope)). X represents the logarithmic concentration of the inhibitor, and Y represents the relative enzyme activity at a given inhibitor concentration (relative to the condition without the inhibitor).
(§4) Calculate the inhibition percentages at concentrations of 1000 nM, 500 nM, or 100 nM as well as the half-maximal inhibitory concentration (IC50) of the test compound from the above experiment.

[5] = test system: CYP enzymes in mouse liver microsomes (MLM); assay: Inhibition of 20-HETE production in mouse liver microsomes (MLM); assay type: biochemical
Outline: (§5)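 Liver microsomes (human or mouse) or recombinant CYP4F2 or CYP4A11 in potassium phosphate buffer mixed with compound, then with 400 μM substrate solution (stock). After 10 min preincubation at 37 °C, reaction started with 6 mM NADPH solution (stock) and run 25 min at 37 °C. 20-HETE formation quantified by LC-MS/MS; IC50 from a four-parameter Hill fit, with percent inhibition also reported at 1000, 500 or 100 nM.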

[6] = biological target: recombinant CYP4A11 (rCYP4A11) (Homo sapiens (Human), UniProt Q02928); assay: Inhibition of 20-HETE production by recombinant CYP4A11; assay type: biochemical; conditions: for inhibition at 0.1 µM: read-out: rCYP4A11 (% inh @ 100 nM)
Method: as §1, §2, §3, §4

[7] = test system: CYP enzymes in human liver microsomes (HLM); assay: Inhibition of 20-HETE production in human liver microsomes (HLM); assay type: biochemical
Outline: as §5

[8] = 50 mg/kg orally once daily for 4 weeks, DIO mice

recombinant CYP4A11 (rCYP4A11), sequence (Q02928 5-519): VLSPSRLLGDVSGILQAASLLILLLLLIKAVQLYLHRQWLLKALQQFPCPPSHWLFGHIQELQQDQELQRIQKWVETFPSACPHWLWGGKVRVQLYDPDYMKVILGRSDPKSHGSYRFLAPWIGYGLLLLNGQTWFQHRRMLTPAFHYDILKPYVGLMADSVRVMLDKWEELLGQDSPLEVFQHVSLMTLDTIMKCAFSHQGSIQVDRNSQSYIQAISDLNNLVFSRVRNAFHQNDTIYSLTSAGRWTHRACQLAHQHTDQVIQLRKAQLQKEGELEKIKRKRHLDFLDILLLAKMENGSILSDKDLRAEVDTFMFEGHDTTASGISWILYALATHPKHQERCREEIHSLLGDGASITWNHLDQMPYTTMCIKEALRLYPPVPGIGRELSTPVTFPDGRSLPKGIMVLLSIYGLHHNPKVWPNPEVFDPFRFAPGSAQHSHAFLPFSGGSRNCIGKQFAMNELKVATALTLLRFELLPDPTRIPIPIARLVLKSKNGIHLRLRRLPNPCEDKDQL
recombinant CYP4F2 (rCYP4F2), sequence (P78329 5-520): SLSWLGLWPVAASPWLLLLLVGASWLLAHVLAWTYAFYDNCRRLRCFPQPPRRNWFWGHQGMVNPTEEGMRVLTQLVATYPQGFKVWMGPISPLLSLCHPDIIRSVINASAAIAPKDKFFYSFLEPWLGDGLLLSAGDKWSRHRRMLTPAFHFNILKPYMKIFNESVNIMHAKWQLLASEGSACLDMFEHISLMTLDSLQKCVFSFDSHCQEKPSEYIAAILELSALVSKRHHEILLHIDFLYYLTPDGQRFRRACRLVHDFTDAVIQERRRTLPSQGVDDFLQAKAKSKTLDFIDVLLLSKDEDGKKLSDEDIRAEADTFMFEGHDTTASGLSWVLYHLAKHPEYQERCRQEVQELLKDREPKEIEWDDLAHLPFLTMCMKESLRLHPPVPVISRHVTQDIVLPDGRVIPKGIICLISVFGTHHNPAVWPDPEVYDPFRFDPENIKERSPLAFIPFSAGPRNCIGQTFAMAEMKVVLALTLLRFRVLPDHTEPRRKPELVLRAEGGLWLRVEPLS

O=C1CCCN1CC1CCN(c2ccc(-c3cn[nH]c3)c(F)c2F)CC1 [Compound 4, 1-((1-(2,3-difluoro-4-(1H-pyrazol-4-yl)phenyl)piperidin-4-yl)methyl)pyrrolidin-2-one]
fasting blood glucose [1, 8]: inhibit the increase in fasting blood glucose | glucose metabolism (OGTT) [1, 8]: enhance glucose metabolism | body weight decrease, of the pre-administration weight ([1]; 50 mg/kg orally once daily, first week of administration, after 9 weeks HFD): 12%-16% | absorption and blood exposure after oral administration (in words) [2]: well absorbed and exhibit high blood exposure | AUC(0-inf) [2]: 59000 ng·h/mL | Cmax [2]: 7260 ng/mL | Tmax [2]: 1.33 h | half-life [2]: 3.9 h | AUC(0-t) [2]: 58100 ng·h/mL | IC50 [3]: 89.5 nM | RLM (% inh @ 500 nM) [3]: 72.00% | IC50 [4]: 18.8 nM | inhibition at 0.1 µM [4]: 61.7% | IC50 [5]: 1350 nM | IC50 [6]: 53.7 nM | IC50 [7]: 25.8 nM | HLM (% inh @ 500 nM) [7]: 85.53%

O=C1CCCCN1CC1CCN(c2ccc(-c3cn[nH]c3)cc2)CC1 [Compound 25, 1-((1-(4-(1H-pyrazol-4-yl)phenyl)piperidin-4-yl)methyl)piperidin-2-one]
IC50 [3]: 159 nM | RLM (% inh @ 500 nM) [3]: 61.49% | inhibition at 0.1 µM [4]: 56% | IC50 [5]: 766 nM | inhibition at 0.1 µM [6]: 30.6% | IC50 [7]: 29.3 nM | HLM (% inh @ 500 nM) [7]: 80.65%

O=C1CCCN1CC1CCN(c2c(F)cc(-c3cn[nH]c3)cc2F)CC1 [Compound 5, 1-((1-(2,6-difluoro-4-(1H-pyrazol-4-yl)phenyl)piperidin-4-yl)methyl)pyrrolidin-2-one]
absorption and blood exposure after oral administration (in words) [2]: well absorbed and exhibit high blood exposure | AUC(0-inf) [2]: 124000 ng·h/mL | Cmax [2]: 9270 ng/mL | Tmax [2]: 2.67 h | half-life [2]: 8.11 h | AUC(0-t) [2]: 103000 ng·h/mL | IC50 [3]: 44.2 nM | RLM (% inh @ 500 nM) [3]: 66.71% | IC50 [4]: 24.9 nM | inhibition at 0.1 µM [4]: 71.1% | IC50 [5]: 946 nM | IC50 [6]: 39.6 nM | IC50 [7]: 28.1 nM | HLM (% inh @ 500 nM) [7]: 81.03%

O=C1CCCCN1CC1CCN(c2ccc(-c3cn[nH]c3)c(F)c2F)CC1 [Compound 26, 1-((1-(2,3-difluoro-4-(1H-pyrazol-4-yl)phenyl)piperidin-4-yl)methyl)piperidin-2-one]
absorption and blood exposure after oral administration (in words) [2]: well absorbed and exhibit high blood exposure | AUC(0-inf) [2]: 40500 ng·h/mL | Cmax [2]: 7150 ng/mL | Tmax [2]: 1.67 h | half-life [2]: 2.93 h | AUC(0-t) [2]: 40300 ng·h/mL | IC50 [3]: 124 nM | RLM (% inh @ 500 nM) [3]: 63.62% | inhibition at 0.1 µM [4]: 78% | IC50 [5]: 1670 nM | inhibition at 0.1 µM [6]: 53.9% | HLM (% inh @ 500 nM) [7]: 89.67%

O=C(C1CCN(c2ccc(-c3cn[nH]c3)cc2)CC1)N1Cc2ccccc2C1 [Compound 66, (1-(4-(1H-pyrazol-4-yl)phenyl)piperidin-4-yl)(isoindolin-2-yl) methanone]
absorption and blood exposure after oral administration (in words) [2]: well absorbed and exhibit high blood exposure | AUC(0-inf) [2]: 486000 ng·h/mL | Cmax [2]: 26800 ng/mL | Tmax [2]: 3.33 h | half-life [2]: 12.5 h | AUC(0-t) [2]: 364000 ng·h/mL | RLM (% inh @ 500 nM) [3]: 64.35% | inhibition at 0.1 µM [4]: 70.5% | inhibition at 0.1 µM [6]: 9.25% | HLM (% inh @ 500 nM) [7]: 69.53%

O=C(C1CCCC1)N1CCC(c2ccc(-c3cn[nH]c3)cc2)CC1 [Compound 70, (4-(4-(1H-pyrazol-4-yl)phenyl)piperidin-1-yl)(cyclopentyl) methanone]
absorption and blood exposure after oral administration (in words) [2]: well absorbed and exhibit high blood exposure | AUC(0-inf) [2]: 69000 ng·h/mL | Cmax [2]: 7320 ng/mL | Tmax [2]: 3 h | half-life [2]: 2.57 h | AUC(0-t) [2]: 68800 ng·h/mL | IC50 [3]: 4.9 nM | inhibition at 0.1 µM [4]: 79.2% | IC50 [5]: 135 nM | inhibition at 0.1 µM [6]: 65.5% | IC50 [7]: 19.4 nM | HLM (% inh @ 500 nM) [7]: 89.89%

O=C1CCCCN1CC1CCN(c2c(F)cc(-c3cn[nH]c3)cc2F)CC1 [Compound 27, 1-((1-(2,6-difluoro-4-(1H-pyrazol-4-yl)phenyl)piperidin-4-yl)methyl)piperidin-2-one]
IC50 [3]: 23.3 nM | inhibition at 0.1 µM [4]: 78.4% | IC50 [5]: 1150 nM | inhibition at 0.1 µM [6]: 52.3% | IC50 [7]: 26 nM | HLM (% inh @ 500 nM) [7]: 88.87%

O=C1CCCN1Cc1ccc(C2CCN(c3cn[nH]c3)CC2)cc1 [Reference 83, reference compound]
AUC(0-inf) [2]: 2640 ng·h/mL | Cmax [2]: 562 ng/mL | Tmax [2]: 1.5 h | half-life [2]: 3.53 h | AUC(0-t) [2]: 2630 ng·h/mL | IC50 [3]: 598 nM | RLM (% inh @ 500 nM) [3]: 38.16% | inhibition at 0.1 µM [4]: 54.6% | IC50 [5]: > 10000 nM | inhibition at 0.1 µM [6]: 35.6% | IC50 [7]: 51.8 nM | HLM (% inh @ 500 nM) [7]: 79.09%

O=C(N1CCCC1)N1CCN(c2ccc(-c3cn[nH]c3)c(F)c2F)CC1 [Compound 72, (4-(2,3-difluoro-4-(1H-pyrazol-4-yl)phenyl)piperazin-1-yl)(pyrrolidin-1-yl) methanone]
absorption and blood exposure after oral administration (in words) [2]: well absorbed and exhibit high blood exposure | AUC(0-inf) [2]: 86000 ng·h/mL | Cmax [2]: 7880 ng/mL | Tmax [2]: 2.33 h | half-life [2]: 2.51 h | AUC(0-t) [2]: 85800 ng·h/mL | IC50 [3]: 5.36 nM | inhibition at 0.1 µM [4]: 70.1% | IC50 [5]: 1330 nM | inhibition at 0.1 µM [6]: 50.6% | IC50 [7]: 19.1 nM | HLM (% inh @ 500 nM) [7]: 89.73%

O=C(Nc1ccc2ccccc2c1)C1CCN(c2ccc(-c3cn[nH]c3)cc2)CC1 [Compound 64, 1-(4-(1H-pyrazol-4-yl)phenyl)-N-(naphthalen-2-yl)piperidine-4-carboxamide]
IC50 [3]: 86.4 nM | inhibition at 0.1 µM [4]: 73.8% | inhibition at 0.1 µM [6]: 40.6% | IC50 [7]: 20 nM | HLM (% inh @ 500 nM) [7]: 81.86%

O=C1CCCN1CC1CCN(c2ccc(-c3cn[nH]c3)cc2Cl)CC1 [Compound 11, 1-((1-(2-chloro-4-(1H-pyrazol-4-yl)phenyl)piperidin-4-yl)methyl)pyrrolidin-2-one]
IC50 [3]: 157 nM | inhibition at 0.1 µM [4]: 59.7% | inhibition at 0.1 µM [6]: 46.3% | HLM (% inh @ 500 nM) [7]: 80.98%

O=C1CCCN1CC1CCN(c2ccc(-c3cn[nH]c3)cc2C(F)F)CC1 [Compound 19, 1-((1-(2-(difluoromethyl)-4-(1H-pyrazol-4-yl)phenyl)piperidin-4-yl)methyl)pyrrolidin-2-one]
IC50 [3]: 434 nM | RLM (% inh @ 500 nM) [3]: 59.42% | inhibition at 0.1 µM [4]: 61.4% | inhibition at 0.1 µM [6]: 58.7% | HLM (% inh @ 500 nM) [7]: 87.01%
